Assay results taken from ChEMBL document CHEMBL1201862, “PubChem BioAssay data set” (2004).
Active and inactive are the calls of the source.

Legend:
Aminopeptidase N = target: T1, Aminopeptidase N (Plasmodium falciparum FcB1/Columbia, UniProt O96935); assay: malaria alanyl aminopeptidase activity blockers – biochemical, fluorogenic H-Leu-NHMec substrate, 1536-well (AID 1445); parameters: species or system Plasmodium falciparum 3D7, 3D7
T1 sequence (O96935 whole entry): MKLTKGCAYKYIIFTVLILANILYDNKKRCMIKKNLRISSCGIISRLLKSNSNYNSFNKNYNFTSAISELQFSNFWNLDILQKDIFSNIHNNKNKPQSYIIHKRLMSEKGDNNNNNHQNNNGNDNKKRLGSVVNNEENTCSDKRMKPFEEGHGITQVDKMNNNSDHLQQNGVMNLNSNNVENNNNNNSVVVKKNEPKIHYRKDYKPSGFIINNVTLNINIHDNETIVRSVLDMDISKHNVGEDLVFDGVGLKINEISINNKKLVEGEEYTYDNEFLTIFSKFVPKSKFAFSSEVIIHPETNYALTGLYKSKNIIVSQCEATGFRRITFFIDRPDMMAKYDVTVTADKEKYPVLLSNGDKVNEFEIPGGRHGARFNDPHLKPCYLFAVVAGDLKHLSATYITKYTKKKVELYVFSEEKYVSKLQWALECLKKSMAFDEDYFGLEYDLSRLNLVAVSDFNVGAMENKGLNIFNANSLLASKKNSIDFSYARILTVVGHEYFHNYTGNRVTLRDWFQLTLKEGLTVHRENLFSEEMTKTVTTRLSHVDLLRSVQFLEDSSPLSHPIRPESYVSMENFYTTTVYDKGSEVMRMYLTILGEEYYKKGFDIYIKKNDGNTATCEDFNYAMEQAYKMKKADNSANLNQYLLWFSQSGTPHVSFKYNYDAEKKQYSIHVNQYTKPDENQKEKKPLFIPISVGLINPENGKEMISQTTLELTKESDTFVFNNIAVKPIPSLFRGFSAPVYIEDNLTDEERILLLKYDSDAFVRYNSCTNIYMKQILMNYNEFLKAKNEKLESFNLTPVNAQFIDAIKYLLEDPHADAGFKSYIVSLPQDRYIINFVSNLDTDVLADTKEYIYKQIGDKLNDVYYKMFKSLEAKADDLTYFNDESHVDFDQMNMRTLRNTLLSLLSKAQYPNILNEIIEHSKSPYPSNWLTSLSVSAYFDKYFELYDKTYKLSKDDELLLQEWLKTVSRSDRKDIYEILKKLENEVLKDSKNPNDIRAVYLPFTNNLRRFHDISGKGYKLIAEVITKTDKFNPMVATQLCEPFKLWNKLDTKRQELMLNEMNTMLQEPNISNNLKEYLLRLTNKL

[1] = Luminescence-based counterscreen assay for KLF5 inhibitors: dose response cell-based high throughput screening assay to identify cytotoxic compounds using the IEC-6 intestinal epithelial cell line. [Related pubchem assays: 1700 (Primary screen.), 1834 (Confirmation screen.), 1858 (Summary AID.), 1905 (Counterscreen.)]; type: functional
HeLa = assay: viability loss in HeLa cells – cell-based, 24 h, cherry-picked samples, cytotoxicity control, dose response (AID 504726); type: functional; conditions: Homo sapiens;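 further: potency for cytotoxicity as loss of luminescence signal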
[2] = target: FAD-linked sulfhydryl oxidase ALR (Homo sapiens, UniProt P55789); assay: ALR-catalysed DTT oxidation blockers – biochemical, H2O2 detection, luminescence, cherry-pick, dose response (AID 493248)
[3] = target: T2, Microphthalmia-associated transcription factor (Homo sapiens, UniProt O75030); assay: reducers of TRPM1 reporter luminescence, concentration series – cell-based, SK-MEL-5, cherry-picked, set 3, MITF inhibitor project, dose response (AID 493073); type: functional;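 further: SK-MEL-5 melanoma cells with luciferase driven by the MITF target TRPM1 promoter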
T2 sequence (O75030 whole entry): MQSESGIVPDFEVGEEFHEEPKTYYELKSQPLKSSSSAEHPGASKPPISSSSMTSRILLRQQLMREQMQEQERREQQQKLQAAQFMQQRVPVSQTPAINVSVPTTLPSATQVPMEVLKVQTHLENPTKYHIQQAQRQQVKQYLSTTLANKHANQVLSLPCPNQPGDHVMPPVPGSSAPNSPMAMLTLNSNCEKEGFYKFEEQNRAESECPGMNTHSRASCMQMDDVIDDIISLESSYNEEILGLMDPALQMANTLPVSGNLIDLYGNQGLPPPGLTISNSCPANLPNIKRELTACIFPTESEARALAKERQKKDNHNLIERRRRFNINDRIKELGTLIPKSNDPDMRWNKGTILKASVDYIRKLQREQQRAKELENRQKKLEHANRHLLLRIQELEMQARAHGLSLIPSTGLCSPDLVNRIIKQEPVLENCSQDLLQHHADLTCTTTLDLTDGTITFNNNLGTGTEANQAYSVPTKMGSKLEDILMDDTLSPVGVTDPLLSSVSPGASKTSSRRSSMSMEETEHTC

[4] = blockers of HIV-1 envelope-mediated cell-cell fusion – cherry-pick, dose response (AID 652057); type: functional, cell-based
[5] = blockers of HIV-1 ZM109 envelope-driven cell-cell fusion – HeLa effector, CEM target cells, luciferase, cherry-pick, dose response (AID 652058); type: functional, cell-based;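 further: luciferase signal from HIV-1 Env mediated cell-cell fusion of effector and target cells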
Paired box protein Pax-8 = Paired box protein Pax-8 (Homo sapiens, UniProt Q06710); assay: PAX8 transcriptional activity inhibition in RMG-I – RMG-I cells, luciferase, cherry-pick, dose response (AID 687027); type: functional, cell-based;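 further: luciferase reporter driven by Pax8 target thyroperoxidase promoter measured by SteadyGlo luminescence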
[6] = off-target signal loss in HeLa-CEM21 co-culture – HeLa F-luc CTL cells, cherry-picked, counter-screen for HIV-1 Env fusion inhibitor project, dose response (AID 652040); type: functional, cell-based;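 further: potency for signal decrease marking cytotoxic or nonspecific inhibition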
[7] = HIV-1 AD8 envelope cell-cell fusion blockers – cherry-pick, dose response (AID 652062); type: functional, cell-based;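 further: luciferase signal from cell-cell fusion driven by HIV-1 clade B AD8 Env; potency is for inhibitors of fusion seen as a drop in luminescence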
[8] = blockers of bursicon-stimulated LGR2 cAMP reporter – cell-based, HEK293, CRE-luciferase reporter, cherry pick, set 2, dose response (AID 743343); type: functional;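 further: transfected cells were stimulated with diluted bursicon conditioned medium after compound addition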
[9] = general cell-killing toxicity readout – plate reader, dry powder samples, cytotoxicity control for PAX8 inhibitor project, dose response (AID 743021); type: functional, cell-based
[10] = blockade of melanocortin 4 receptor signaling – cell-based, plate reader, cherry pick, counter-screen for LGR2 antagonist project, dose response (AID 743444); type: functional;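 further: transfected HEK 293 cells stimulated with alpha-MSH peptide; potency of inhibitors of the alpha-MSH evoked signal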
[11] = viability loss in HEK293 cells – cell-based, plate reader, cherry-picked samples, cytotoxicity control, dose response (AID 743446); type: functional
[12] = Counterscreen for IDE inhibitors: Luminescence-based cell-based high throughput dose response assay to identify compounds that are cytotoxic to HEK cells. [Related pubchem assays: 434962 (Primary screen (IDE inhibitors in singlicate)), 449730 (Counterscreen (Cytotoxicity in triplicate)), 435028 (Confirmation (IDE inhibitors in triplicate)) …; type: functional; conditions: HEK293
Large T antigen = Large T antigen (Simian virus 40, UniProt P03070); type: functional, Betapolyomavirus macacae;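 further: Confirmatory-stage PubChem screen for compounds that inhibit SV40 T antigen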
Insulin-degrading enzyme = target: T3, Insulin-degrading enzyme (Homo sapiens, UniProt P14735); assay: Dose Response: Fluorescence polarization-based cell-based high throughput dose response assay for inhibitors of insulin-degrading enzyme (IDE). [Related pubchem assays: 434962 (Primary screen (IDE inhibitors in singlicate)), 449730 (Counterscreen (Cytotoxicity in triplicate)), 435028 (Confirmation (IDE inhibitors in triplicate)), 434984 (Summary …; type: functional
T3 sequence (P14735 whole entry): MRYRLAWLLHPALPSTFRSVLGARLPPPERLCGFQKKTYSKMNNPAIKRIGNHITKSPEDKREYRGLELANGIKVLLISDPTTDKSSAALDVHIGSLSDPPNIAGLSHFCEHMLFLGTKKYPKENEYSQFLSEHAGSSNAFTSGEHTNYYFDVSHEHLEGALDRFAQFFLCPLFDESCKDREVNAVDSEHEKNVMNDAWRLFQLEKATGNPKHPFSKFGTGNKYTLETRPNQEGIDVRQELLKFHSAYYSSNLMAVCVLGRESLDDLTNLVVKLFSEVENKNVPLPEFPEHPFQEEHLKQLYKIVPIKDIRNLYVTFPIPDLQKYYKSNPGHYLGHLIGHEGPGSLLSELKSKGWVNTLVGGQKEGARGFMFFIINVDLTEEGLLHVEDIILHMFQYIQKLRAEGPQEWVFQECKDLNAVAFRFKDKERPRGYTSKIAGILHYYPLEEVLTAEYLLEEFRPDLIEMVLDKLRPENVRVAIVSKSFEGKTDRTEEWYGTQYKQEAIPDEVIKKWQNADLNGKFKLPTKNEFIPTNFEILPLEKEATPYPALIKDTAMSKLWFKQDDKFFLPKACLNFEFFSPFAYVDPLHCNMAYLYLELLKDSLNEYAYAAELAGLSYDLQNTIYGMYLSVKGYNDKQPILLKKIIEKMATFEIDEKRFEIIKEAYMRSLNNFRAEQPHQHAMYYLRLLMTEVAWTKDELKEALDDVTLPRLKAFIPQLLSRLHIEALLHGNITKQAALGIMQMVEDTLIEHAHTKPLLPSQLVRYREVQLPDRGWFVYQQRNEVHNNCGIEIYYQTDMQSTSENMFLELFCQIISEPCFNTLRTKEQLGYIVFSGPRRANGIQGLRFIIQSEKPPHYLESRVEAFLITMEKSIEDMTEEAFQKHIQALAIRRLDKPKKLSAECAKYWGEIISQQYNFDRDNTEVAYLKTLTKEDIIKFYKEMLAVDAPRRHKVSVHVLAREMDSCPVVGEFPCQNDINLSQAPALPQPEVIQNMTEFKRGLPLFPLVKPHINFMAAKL

Vero = assay: Vero cell viability after compound exposure – synthesized analogs, set II, cytotoxicity control for West Nile virus antiviral project, SAR follow-up (AID 2402); type: functional; conditions: Chlorocebus sabaeus
[13] = A Cell Based Assay for the Identification of Probe candidate Compounds with Anti- Venezuelan Equine Encephalitis virus. [Related pubchem assays: 2409, 2419, 1621, 2238, 2405, 2024, 2065, 2402, 2414, 1635, 1650, 2244 ]; type: functional

Chain of FAD-linked sulfhydryl oxidase ALR (P55789 whole entry): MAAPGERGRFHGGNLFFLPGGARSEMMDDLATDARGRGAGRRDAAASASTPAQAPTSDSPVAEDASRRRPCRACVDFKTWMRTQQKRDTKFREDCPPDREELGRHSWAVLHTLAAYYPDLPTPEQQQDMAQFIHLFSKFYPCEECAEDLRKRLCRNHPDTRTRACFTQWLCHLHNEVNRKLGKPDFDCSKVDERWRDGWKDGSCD
Chain of Paired box protein Pax-8 (Q06710 whole entry, the tested form may be a part): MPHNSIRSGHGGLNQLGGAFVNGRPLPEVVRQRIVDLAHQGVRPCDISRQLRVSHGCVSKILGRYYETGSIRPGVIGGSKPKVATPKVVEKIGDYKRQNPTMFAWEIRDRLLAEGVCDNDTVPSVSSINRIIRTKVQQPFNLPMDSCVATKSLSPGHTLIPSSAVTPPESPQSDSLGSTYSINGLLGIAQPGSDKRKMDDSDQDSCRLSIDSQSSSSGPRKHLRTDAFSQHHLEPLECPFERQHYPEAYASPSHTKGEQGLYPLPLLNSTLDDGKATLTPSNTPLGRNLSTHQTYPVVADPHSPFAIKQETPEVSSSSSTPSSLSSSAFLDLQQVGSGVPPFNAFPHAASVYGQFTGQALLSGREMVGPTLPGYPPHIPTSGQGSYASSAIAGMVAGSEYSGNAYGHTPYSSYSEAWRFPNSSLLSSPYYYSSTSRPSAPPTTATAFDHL
Chain of Large T antigen (P03070 whole entry): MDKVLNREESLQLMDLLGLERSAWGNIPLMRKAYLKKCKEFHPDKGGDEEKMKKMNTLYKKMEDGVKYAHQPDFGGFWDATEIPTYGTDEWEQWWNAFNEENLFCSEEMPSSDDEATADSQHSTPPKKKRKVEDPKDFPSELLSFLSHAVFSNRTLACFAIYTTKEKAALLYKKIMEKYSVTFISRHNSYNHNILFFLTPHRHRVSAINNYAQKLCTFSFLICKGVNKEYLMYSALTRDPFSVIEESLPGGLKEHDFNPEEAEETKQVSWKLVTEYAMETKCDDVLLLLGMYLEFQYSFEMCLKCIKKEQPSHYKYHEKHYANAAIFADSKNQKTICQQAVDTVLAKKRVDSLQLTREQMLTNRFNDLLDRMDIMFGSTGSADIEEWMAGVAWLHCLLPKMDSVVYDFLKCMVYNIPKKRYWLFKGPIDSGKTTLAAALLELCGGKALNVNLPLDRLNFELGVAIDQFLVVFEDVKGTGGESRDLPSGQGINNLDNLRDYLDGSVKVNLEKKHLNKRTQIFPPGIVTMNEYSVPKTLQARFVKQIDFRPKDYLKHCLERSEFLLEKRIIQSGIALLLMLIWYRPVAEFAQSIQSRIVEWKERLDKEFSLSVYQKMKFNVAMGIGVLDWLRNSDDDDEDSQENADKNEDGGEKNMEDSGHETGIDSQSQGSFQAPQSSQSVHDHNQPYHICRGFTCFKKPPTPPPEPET

Nc1ccc(-c2nc3ccc(C(=O)O)cc3s2)cc1
IC50 (Aminopeptidase N): 25.7 µM (active) | IC50 [1]: > 39.8 µM (not active) | AC50 (HeLa): 313 µM (active) | AC50 [2]: 0.839 µM (active) | AC50 [3]: 0.866 µM (active) | AC50 [4]: 1.03 µM (active) | AC50 [5]: 4.57 µM (active) | AC50 (Paired box protein Pax-8): 2.6 µM (active) | AC50 [6]: 1.91 µM (active) | AC50 [7]: 1.6 µM (active) | AC50 [8]: 0.749 µM (active) | AC50 [9]: 30.4 µM (active) | AC50 [10]: 0.649 µM (active) | AC50 [11]: 48.6 µM (active)

COc1cc(-c2cc(=O)c3ccccc3o2)ccc1O
IC50 [12]: > 55.6 µM (not active) | IC50 (Large T antigen): 9.46 µM (active) | IC50 (Insulin-degrading enzyme): > 6.21 µM (active)

COc1ccc(Cn2nc(C)cc2OC(=O)c2c(F)ccc(C)c2F)cc1
CC50 (Vero): > 200 µM (active) | IC50 [13]: 131 µM (active)
